Measurements from publication PMC7698842, “Lanostane Triterpenoid Metabolites from a Penares sp. Marine Sponge Protect Neuro-2a Cells against Paraquat Neurotoxicity” (Molecules, 2020).

Legend:
[1] = system: PQ-treated Neuro-2a cells; assay: Neurite outgrowth estimation in PQ-treated Neuro-2a cells; format: cell-based, mouse; conditions: compound 10 µM 1 h, then PQ 500 µM 24 h
Description: Neurite outgrowth was studied as described by Li et al.. Neuro-2a cells were seeded in 6-well plates (1.6 × 10^5 cells/well) in DMEM medium containing 10% fetal bovine serum (Biolot, St. Peterburg, Russia) and 1% penicillin/streptomycin (Invitrogen, Carlsbad, CA, USA). The next day, this growth media was changed with serum-free DMEM media containing 1% penicillin/streptomycin, and cells were treated with studied compounds at a concentration of 10 µM for 1 h. After that, PQ (500 µM) was added and cells were incubated during 24 h. Cells incubated without PQ and compounds and with PQ alone were used as positive and negative controls, respectively.
For each well, approximately 10 images were acquired randomly by scanning the wells from left to right and top to bottom using the AxioImager A1 microscope (CarlZeiss, Oberkochen, Germany). A total of ten random fields (near 350 cells in each) for each experimental group were scored for neurite outgrowth. The number of neurite-bearing cells and lengths of the individual neurites for each cell were measured using the AxioVision 4.7.1 software (CarlZeiss, Oberkochen, Germany). Length was defined as the straight-line distance from the tip of the neurite to the junction between the cell body and neurite base. In the case of branched neurites, the length of the longest branch was measured from the tip of the neurite to the cell body. In each experimental group, the average length of neurites was calculated, as well as the average number of neurites per one cell.

[2] = DPPH radical scavenging assay (cell-free); conditions: 30 min, MeOH
Description: The 2,2-diphenyl-1-picryl-hydrazyl-hydrate (DPPH) radical scavenging activity was tested as described previously. The compounds were dissolved in MeOH, and the solutions (120 µL) were dispensed into wells of a 96-well microplate. The DPPH (Sigma-Aldrich, Steinheim, Germany) was dissolved in MeOH at a concentration of 7.5 × 10^−3 M and the solution (30 µL) was added to each well. The concentrations of tested compounds in the mixtures were 10 and 100 µM. Ascorbic acid was used as a positive control. The mixtures were shaken and left for 30 min. The absorbance of the resulting solutions was measured at λ = 520 nm with a MultiscanFC plate reader (Thermo Scientific, Waltham, MA, USA). The concentration scavenging 50% of the DPPH radical (EC50) was calculated for each compound.

[3] = system: PQ-treated Neuro-2a cells; assay: PQ-treated Neuro-2a cell viability (FDA assay); format: cell-based, mouse; conditions: compound 1 and 10 µM, PQ 500 µM, 24 h
Description: A stock solution of the fluorescein diacetate (FDA) (Sigma-Aldrich, St. Louis, MO, USA) in DMSO (1 mg/mL) was prepared. The cells (1 × 10^4 cells/well) were seeded in black 96-well plates before testing. After incubation of the cells with compounds and PQ during 24 h, FDA solution (50 μg/mL) was added to each well and the plate was incubated in the dark at 37 °C for 15 min. Cells were washed with phosphate buffer saline (PBS) (BioloT, S.-Peterburg, Russia) and fluorescence was measured with a Fluoroskan Ascent plate reader (Thermo Labsystems, Helsinki, Finland) at λex = 485 nm and λem = 518 nm. All manipulations with fluorescent probes were carried out in a darkened room. Cell viability was expressed as the percent of control.
(§1) The cells (1 × 10^4 cells/well of a 96-well plate) were treated with studied compounds at concentrations of 1 and 10 µM for 1 h and then 500 µM of PQ (Sigma-Aldrich, St. Louis, MO, USA) was added to the neuroblastoma cells. Cells incubated without PQ and compounds and with PQ alone were used as positive and negative controls, respectively. The viability of cells was measured after 24 h using MTT and FDA methods. The results were presented as percent of positive control data.

[4] = system: PQ-treated Neuro-2a cells; assay: PQ-treated Neuro-2a cell viability (MTT assay); format: cell-based, mouse; conditions: compound 1 and 10 µM, PQ 500 µM, 24 h
Description: The cells (1 × 10^4 cells/well of a 96-well plate) were incubated with different concentrations of studied compounds during 24 h. After that, cell viability was determined by the MTT (3-(4,5-dimethylthiazol-2-yl)-2,5-diphenyltetrazolium bromide) method according to the manufacturer’s instructions (Sigma-Aldrich, St. Louis, MO, USA). Absorbance of the converted formazan was measured using a Multiskan FC microplate photometer (Thermo Scientific, Waltham, MA, USA) at λ = 570 nm. The results were presented as percent of control data, and concentration of cell viability inhibition on 50% (IC50) was calculated.
as §1

[5] = system: ROS level in PQ-treated Neuro-2a cells; assay: ROS level analysis in PQ-treated Neuro-2a cells (H2DCFDA); format: cell-based, mouse; conditions: tested at 1 and 10 μM, PQ 500 µM 1 h
Description: The cells (1 × 10^4 cells/well of a 96-well plate) were incubated with compound solutions (1 and 10 µM) during 1 h. Then, PQ was added to cell suspension to a resulting concentration of 500 µM for incubation during 1 h. Cells incubated without PQ and compounds and with PQ alone were used as positive and negative controls, respectively. The 20 µL of 2,7-dichlorodihydrofluorescein diacetate solution (H2DCFDA, Molecular Probes, Eugene, OR, USA) was added to each well (10 µM, final concentration) and the plate was incubated for an additional 10 min at 37 °C. The intensity of dichlorofluorescin fluorescence was measured with a PHERAstar FS plate reader (BMG Labtech, Ortenberg, Germany) at λex = 485 nm and λem = 518 nm. The data were processed by MARS Data Analysis v. 3.01R2 (BMG Labtech, Ortenberg, Germany). The results were presented as percent of positive control data.

[6] = system: PQ-treated Neuro-2a cells; assay: Propidium iodide straining of PQ-treated Neuro-2a cells (membrane permeability); format: cell-based, mouse; conditions: compound 10 μM pre-incubation, PQ-treated cells, 24 h
Description: The cells (1 × 10^4 cells/well) were seeded in black 96-well plates before testing. After incubation of the cells with compounds and PQ during 24 h, PI solution (10 μg/mL) was added to each well and the plate was incubated in the dark at 37 °C for 10 min. Cells were washed with phosphate buffer saline (PBS) (BioloT, St.Peterburg, Russia) and fluorescence was measured with a Fluoroskan Ascent plate reader (Thermo Labsystems, Helsinki, Finland) at […]. All manipulations with fluorescent probes were carried out in a darkened room. The results were presented as percent of positive control data.

CC(C)=CCC[C@@H](C)[C@H]1CC[C@@]2(C(=O)O)C3=C(CC[C@]12C)[C@@]1(C)CCC(=O)C(C)(C)[C@@H]1CC3 [Compound 4, penasterone]
increase in the average number of neurites per cell [1]: 27%
increase of neurites-bearing cell amount compared to PQ-treated control [1]: 134%
EC50 [2]: > 100 µM
effect on PQ-treated cell viability (FDA assay) [3]: did not show any effect
effect on PQ-treated cell viability (MTT assay) [4]: did not show any effect
concentrations at which ROS content in PQ-treated cells was reduced [5]: effective at concentrations of 1 and 10 μM
decrease of fluorescence of PI-straining cells [6]: 17%
